Results published in ChEMBL document CHEMBL5584238, “Psammaplin A analogues with modified disulfide bond targeting histone deacetylases: Synthesis and biological evaluation” (Eur J Med Chem, 2024).
Activity calls are given as the source filed them. The rule behind the calls is not given here.

What was measured:
HCT-116 [1] = assay: Induction of cell cycle arrest in human HCT-116 cells assessed as accumulation of cells at G1 phase at 0.2 uM after 24 hrs by PI staining based flow cytometry analysis (reference value: 37.9%); format: functional
Mus musculus = assay: In vivo inhibition of class 1 HDACs in BALB/c nude mouse assessed as upregulation of tumor acetylated H3 level at 5 mg/kg, ip administered every 2 days for 26 days by Western blotting analysis; format: functional, organism-based; settings: time 26.0 day
[2] = molecular target: T1, Protein deacetylase HDAC6 (Homo sapiens, UniProt Q9UBN7); assay: Inhibition of recombinant human HDAC6 using Boc-Lys(Ac)-AMC as substrate preincubated for 1 hr followed by substrate addition and measured after 2 hrs by microplate reader assay
T1 sequence (Q9UBN7 whole entry): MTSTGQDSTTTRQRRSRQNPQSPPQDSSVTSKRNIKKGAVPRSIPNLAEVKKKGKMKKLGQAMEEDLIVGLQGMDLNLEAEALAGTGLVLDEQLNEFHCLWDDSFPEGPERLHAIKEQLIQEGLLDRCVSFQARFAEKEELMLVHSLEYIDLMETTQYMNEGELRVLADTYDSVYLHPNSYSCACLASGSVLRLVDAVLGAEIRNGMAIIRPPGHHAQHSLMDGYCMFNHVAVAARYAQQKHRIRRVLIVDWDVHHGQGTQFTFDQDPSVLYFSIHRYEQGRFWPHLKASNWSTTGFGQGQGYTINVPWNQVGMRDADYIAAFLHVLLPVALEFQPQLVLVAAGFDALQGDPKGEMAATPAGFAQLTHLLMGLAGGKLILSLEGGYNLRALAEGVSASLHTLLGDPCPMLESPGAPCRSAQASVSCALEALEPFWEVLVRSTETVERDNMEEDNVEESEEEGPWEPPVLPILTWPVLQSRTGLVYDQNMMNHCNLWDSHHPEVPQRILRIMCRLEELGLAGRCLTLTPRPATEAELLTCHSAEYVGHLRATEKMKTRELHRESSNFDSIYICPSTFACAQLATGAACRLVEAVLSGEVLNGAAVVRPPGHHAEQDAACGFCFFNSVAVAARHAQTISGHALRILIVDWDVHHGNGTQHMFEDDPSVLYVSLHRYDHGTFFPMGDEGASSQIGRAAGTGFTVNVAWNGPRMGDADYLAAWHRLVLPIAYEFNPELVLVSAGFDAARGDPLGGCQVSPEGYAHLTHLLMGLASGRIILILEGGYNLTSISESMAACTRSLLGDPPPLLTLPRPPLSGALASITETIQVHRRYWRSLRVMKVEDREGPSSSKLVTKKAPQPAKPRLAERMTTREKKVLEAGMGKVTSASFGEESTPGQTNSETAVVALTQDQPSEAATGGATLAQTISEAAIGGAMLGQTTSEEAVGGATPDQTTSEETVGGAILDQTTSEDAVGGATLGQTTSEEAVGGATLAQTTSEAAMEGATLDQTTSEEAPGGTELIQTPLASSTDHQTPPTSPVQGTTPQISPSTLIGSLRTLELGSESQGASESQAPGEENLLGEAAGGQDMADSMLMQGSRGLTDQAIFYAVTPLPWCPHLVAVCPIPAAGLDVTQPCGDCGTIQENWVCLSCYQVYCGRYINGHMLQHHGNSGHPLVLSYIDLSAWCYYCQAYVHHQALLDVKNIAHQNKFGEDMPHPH

HCT-116 [3] = assay: Induction of apoptosis in human HCT-116 cells assessed as early apoptotic cells at 0.2 uM incubated for 24 hrs by Annexin V-FITC/PI staining based flow cytometry analysis ( Rvb = 2.36%); format: functional
HCT-116 [4] = assay: Induction of cell cycle arrest in human HCT-116 cells assessed as accumulation of cells at G2/M phase at 0.2 uM after 24 hrs by PI staining based flow cytometry analysis (reference value: 9.3%); format: functional
[5] = molecular target: T2, Protein deacetylase HDAC6 (Mus musculus) (UniProt Q9Z2V5); assay: In vivo inhibition of HDAC6 in BALB/c nude mouse assessed as upregulation of tumor acetylated alpha-tubulin level at 5 mg/kg, ip administered every 2 days for 26 days by Western blotting analysis; format: functional, organism-based; settings: time 26.0 day
T2 sequence (whole entry): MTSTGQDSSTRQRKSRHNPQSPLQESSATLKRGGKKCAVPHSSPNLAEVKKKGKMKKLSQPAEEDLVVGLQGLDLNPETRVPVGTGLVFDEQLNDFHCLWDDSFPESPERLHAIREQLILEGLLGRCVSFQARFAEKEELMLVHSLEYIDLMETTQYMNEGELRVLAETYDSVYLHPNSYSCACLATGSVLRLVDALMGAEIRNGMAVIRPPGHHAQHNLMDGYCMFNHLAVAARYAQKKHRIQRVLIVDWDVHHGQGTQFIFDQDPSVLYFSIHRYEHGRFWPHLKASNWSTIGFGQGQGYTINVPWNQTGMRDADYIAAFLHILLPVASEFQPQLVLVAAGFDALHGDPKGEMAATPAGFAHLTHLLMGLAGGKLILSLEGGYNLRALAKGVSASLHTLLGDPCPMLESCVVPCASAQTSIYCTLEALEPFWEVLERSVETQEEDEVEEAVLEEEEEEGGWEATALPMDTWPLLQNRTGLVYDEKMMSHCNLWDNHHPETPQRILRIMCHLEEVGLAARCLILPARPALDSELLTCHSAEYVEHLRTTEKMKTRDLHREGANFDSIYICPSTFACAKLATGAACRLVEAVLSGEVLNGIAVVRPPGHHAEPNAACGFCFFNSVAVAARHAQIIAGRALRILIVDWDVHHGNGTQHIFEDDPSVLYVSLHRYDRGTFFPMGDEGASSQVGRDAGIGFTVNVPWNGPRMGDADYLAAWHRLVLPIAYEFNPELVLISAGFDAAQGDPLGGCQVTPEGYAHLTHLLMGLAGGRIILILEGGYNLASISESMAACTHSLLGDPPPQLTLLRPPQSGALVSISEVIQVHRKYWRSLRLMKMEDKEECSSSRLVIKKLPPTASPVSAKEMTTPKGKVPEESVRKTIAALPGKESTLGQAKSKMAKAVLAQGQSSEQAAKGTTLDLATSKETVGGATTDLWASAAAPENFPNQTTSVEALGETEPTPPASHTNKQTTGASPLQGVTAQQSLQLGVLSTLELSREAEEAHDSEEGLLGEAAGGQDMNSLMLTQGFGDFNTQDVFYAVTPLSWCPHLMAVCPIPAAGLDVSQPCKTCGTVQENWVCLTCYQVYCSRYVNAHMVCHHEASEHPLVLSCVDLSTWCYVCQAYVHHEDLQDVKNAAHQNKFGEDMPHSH

HCT-116 [6] = assay: Induction of apoptosis in human HCT-116 cells assessed as early apoptotic cells at 0.4 uM incubated for 24 hrs by Annexin V-FITC/PI staining based flow cytometry analysis ( Rvb = 2.36%); format: functional
HCT-116 [7] = assay: Induction of apoptosis in human HCT-116 cells assessed as viable cells at 0.2 uM incubated for 24 hrs by Annexin V-FITC/PI staining based flow cytometry analysis ( Rvb = 92.2%); format: functional; settings: read-out: Activity

For `O=C(NCC[Se][Se]CCNC(=O)/C(Cc1ccsc1)=N/O)/C(Cc1ccsc1)=N/O`, the Activity (HCT-116 [1]) was 11.19%, the inhibition (Mus musculus) was “Active” and the IC50 [2] was 3100 nM. For the same compound, the Activity (HCT-116 [3]) was 47.1%, the Activity (HCT-116 [4]) was 51.82% and the inhibition [5] was “Active”. For the same compound, the Activity (HCT-116 [6]) was 73.3% and the viability at 0.2 µM (HCT-116 [7]) was 34.5%.
In the case of `O=C(NCC[Se][Se]CCNC(=O)/C(Cc1ccc(O)c(Br)c1)=N/O)/C(Cc1ccc(O)c(Br)c1)=N/O`, the Activity (HCT-116 [1]) is reported as 15%, the inhibition (Mus musculus) is reported as “Active” and the IC50 [2] is reported as 60 nM. The Activity (HCT-116 [3]) was 46.1%, the Activity (HCT-116 [4]) was 74.56% and the inhibition [5] was “Active”. It also gave an Activity (HCT-116 [6]) of 67% and a viability at 0.2 µM (HCT-116 [7]) of 40.7%.
